Calls of active or inactive are those of the source. The rule behind the calls is not given here.
Tests used:
[1] = target: T1, Fibroblast growth factor 1/Fibroblast growth factor receptor 2 (Homo sapiens) (UniProt P05230+P21802); test: Inhibition of FGF1/FGFR2 D2 domain interaction in human MCF7 cells assessed as decrease in cell proliferation at 0.1 to 1 uM by WST-1 assay; type: cell-based; settings: dose 0.1-1 µM
MCF7 = test: Cytotoxicity against FGF1-stimulated human MCF7 cells cultured in serum-starved media assessed as reduction in cell viability incubated for 48 hrs by WST-1 assay; type: functional, cell-based; settings: MCF7, 48 h
[2] = target: T1, Fibroblast growth factor 1/Fibroblast growth factor receptor 2 (Homo sapiens); test: Inhibition of FGF1/FGFR2 D2 domain interaction in human MCF7 cells assessed as decrease in cell count at 0.1 to 1 uM by WST-1 assay; type: cell-based; settings: dose 0.1-1 µM

T1 sequence (P05230 whole entry, looked up, the tested form may be a part): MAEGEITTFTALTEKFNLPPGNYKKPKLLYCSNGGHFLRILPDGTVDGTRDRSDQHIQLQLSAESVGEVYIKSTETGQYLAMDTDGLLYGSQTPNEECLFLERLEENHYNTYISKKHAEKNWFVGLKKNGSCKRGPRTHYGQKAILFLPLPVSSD
T1 sequence (P21802 whole entry, looked up, the tested form may be a part): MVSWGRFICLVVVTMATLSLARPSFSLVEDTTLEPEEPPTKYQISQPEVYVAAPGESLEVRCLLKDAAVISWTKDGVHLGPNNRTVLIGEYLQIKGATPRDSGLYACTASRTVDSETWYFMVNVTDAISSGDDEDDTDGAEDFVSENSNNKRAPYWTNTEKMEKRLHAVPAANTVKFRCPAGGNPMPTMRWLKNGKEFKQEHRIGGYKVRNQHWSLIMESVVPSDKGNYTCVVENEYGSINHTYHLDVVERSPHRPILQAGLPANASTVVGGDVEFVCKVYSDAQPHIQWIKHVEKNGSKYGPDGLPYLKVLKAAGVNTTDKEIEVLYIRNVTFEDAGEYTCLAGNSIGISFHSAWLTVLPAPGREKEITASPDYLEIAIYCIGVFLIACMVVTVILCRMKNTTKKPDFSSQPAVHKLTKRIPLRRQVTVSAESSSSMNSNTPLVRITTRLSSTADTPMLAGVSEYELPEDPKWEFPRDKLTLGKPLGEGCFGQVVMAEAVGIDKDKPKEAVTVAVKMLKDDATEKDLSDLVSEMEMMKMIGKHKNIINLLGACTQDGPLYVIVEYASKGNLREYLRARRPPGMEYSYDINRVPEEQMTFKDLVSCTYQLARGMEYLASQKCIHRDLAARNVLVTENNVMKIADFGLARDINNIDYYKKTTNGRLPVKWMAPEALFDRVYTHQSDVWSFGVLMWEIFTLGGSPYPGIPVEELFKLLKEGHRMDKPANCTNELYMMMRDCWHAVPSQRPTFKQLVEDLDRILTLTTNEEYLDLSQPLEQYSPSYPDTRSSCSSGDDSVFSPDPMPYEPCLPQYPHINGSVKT

inhibition [1]	inhibition [2]	Structure (SMILES)	IC50 (MCF7) [µM]
Active	–	Cc1ccc(C(=O)Nc2ccc(S(=O)(=O)O)c3cc(S(=O)(=O)O)cc(S(=O)(=O)O)c23)cc1NC(=O)c1cccc(NC(=O)Nc2cccc(C(=O)Nc3cc(C(=O)Nc4ccc(S(=O)(=O)O)c5cc(S(=O)(=O)O)cc(S(=O)(=O)O)c45)ccc3C)c2)c1 [SURAMIN]	154
Active	Active	O=C(Nc1ccc(C(=O)Nc2ccc(C(=O)Nc3cccc4cc(S(=O)(=O)O)ccc34)cc2)cc1)Nc1ccc(C(=O)Nc2ccc(C(=O)Nc3cccc4cc(S(=O)(=O)O)ccc34)cc2)cc1	619
